Data: ChEMBL document CHEMBL2073865 (Drug Metab Dispos, 2004)
Where a name gives a salt, the structure may show the parent alone. Blank lines part the entries; values can stand above or below the compound they belong to.

Tests used:
Format in all cases: functional, cell-based
[1] = target: T1, ATP-dependent translocase ABCB1 (Homo sapiens, UniProt P08183); assay: TP_TRANSPORTER: transepithelial transport of erythromycin in the presence of Indoxyl sulfate at 1mM in MDR1-expressing MDCK cells; settings: dog, 1000 µM
T1 sequence (P08183 whole entry): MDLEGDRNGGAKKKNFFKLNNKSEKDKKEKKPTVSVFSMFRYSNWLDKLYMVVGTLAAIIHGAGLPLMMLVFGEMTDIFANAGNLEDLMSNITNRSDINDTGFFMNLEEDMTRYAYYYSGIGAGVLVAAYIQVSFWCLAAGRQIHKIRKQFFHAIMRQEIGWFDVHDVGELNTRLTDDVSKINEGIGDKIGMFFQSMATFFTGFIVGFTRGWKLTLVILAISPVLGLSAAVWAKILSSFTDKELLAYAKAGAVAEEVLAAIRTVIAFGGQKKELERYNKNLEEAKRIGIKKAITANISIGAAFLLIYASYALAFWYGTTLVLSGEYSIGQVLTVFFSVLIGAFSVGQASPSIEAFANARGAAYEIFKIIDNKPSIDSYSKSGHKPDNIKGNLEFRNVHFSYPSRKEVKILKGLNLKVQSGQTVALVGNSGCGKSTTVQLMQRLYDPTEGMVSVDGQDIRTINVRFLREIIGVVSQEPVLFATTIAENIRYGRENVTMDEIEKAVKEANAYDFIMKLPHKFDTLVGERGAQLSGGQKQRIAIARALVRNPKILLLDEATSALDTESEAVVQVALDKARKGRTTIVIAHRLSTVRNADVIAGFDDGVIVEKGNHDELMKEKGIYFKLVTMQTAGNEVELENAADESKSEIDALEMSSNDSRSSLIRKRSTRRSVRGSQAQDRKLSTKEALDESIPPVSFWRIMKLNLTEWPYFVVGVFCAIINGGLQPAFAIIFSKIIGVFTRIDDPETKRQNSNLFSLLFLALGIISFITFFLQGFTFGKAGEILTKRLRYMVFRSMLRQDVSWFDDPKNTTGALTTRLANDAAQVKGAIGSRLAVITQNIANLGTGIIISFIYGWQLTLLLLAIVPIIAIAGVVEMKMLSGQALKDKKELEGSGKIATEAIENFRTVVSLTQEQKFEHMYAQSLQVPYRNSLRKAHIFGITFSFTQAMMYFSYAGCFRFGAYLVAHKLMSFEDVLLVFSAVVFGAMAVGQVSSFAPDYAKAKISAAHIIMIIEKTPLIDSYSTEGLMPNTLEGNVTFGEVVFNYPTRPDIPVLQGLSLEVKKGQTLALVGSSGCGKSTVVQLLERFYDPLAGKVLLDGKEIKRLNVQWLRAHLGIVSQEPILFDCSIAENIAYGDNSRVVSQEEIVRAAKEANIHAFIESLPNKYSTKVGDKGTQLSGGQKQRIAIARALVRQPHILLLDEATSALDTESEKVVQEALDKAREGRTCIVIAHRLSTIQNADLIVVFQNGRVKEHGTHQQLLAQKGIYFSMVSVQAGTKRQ

[2] = target: T1, ATP-dependent translocase ABCB1; assay: TP_TRANSPORTER: transepithelial transport of erythromycin in the presence of Hippurate at 2mM in MDR1-expressing MDCK cells; settings: dog, 2000 µM
[3] = target: T1, ATP-dependent translocase ABCB1; assay: TP_TRANSPORTER: transepithelial transport of erythromycin in the presence of 3-Carboxy-4-methyl-5-propyl-2-furanpropanoic acid at 500uM and 1mM in MDR1-expressing MDCK cells; settings: dog

- Activity [1]: is not an inhibitor [-]
Structure (SMILES): O=S(=O)(O)Oc1c[nH]c2ccccc12 [INDOXYL SULFATE]

- Activity [2]: is not an inhibitor [-]
Structure (SMILES): O=C(O)CNC(=O)c1ccccc1 [HIPPURIC ACID]

- Activity [3]: is not an inhibitor [-]
Structure (SMILES): CCCc1oc(CCC(=O)O)c(C(=O)O)c1C
